Several values for one entry are separate records, joined by “and”; a condition that tells them apart may be missing. Identical values can stand only once.
Key:
Type in all cases: toxicity, cell-based
HEK-293T = assay: Incucyte cell viability with HEK293T; details: human, 10 µM, compound concentration 10 uM
Fibroblast = assay: Incucyte cell viability with human fibroblast; details: 10 µM, compound concentration 10 uM
U2OS = assay: Incucyte cell viability with U2OS; details: human, 10 µM, compound concentration 10 uM
Further: unitless GR value; below 1 slowed growth and below 0 cell loss.

SMILES: Cl.O=C(c1ccc(-c2ccc(Cl)cc2)o1)N(Cc1ccccn1)c1ccc(N2CCNCC2)cc1
- Growth Rate (HEK-293T; 12 h, replicate number 2): 0.52
- Growth Rate (HEK-293T; 18 h, replicate number 1): 0.76
- Growth Rate (HEK-293T; 18 h, replicate number 2): 0.43
- Growth Rate (HEK-293T; 24 h, replicate number 1): 0.48
- Growth Rate (HEK-293T; 24 h, replicate number 2): 0.25
- Growth Rate (Fibroblast; 6 h, replicate number 1): -0.62
- Growth Rate (Fibroblast; 6 h, replicate number 2): -1
- Growth Rate (Fibroblast; 12 h, replicate number 1): -1
- Growth Rate (Fibroblast; 12 h, replicate number 2): -0.6
- Growth Rate (Fibroblast; 18 h, replicate number 2): -0.43
- Growth Rate (Fibroblast; 24 h, replicate number 2): -0.32
- Growth Rate (U2OS; 0 h, replicate number 2): -0.97
- Growth Rate (U2OS; 6 h, replicate number 2): 0.57
- Growth Rate (U2OS; 12 h, replicate number 2): 0.87

SMILES: CN(C)Cc1cccc(NC(=C2C(=O)Nc3cc(C(=O)N(C)C)ccc32)c2ccccc2)c1
- Growth Rate (HEK-293T; 24 h, replicate number 2): 0.95
- Growth Rate (Fibroblast; 6 h, replicate number 1): 0.08
- Growth Rate (Fibroblast; 12 h, replicate number 1): 0.68
- Growth Rate (Fibroblast; 18 h, replicate number 1): 0.68
- Growth Rate (Fibroblast; 24 h, replicate number 1): 0.47
- Growth Rate (U2OS; 6 h, replicate number 2): 0.99
- Growth Rate (U2OS; 12 h, replicate number 2): 0.73
- Growth Rate (U2OS; 18 h, replicate number 2): 0.82
- Growth Rate (U2OS; 24 h, replicate number 2): 0.8

SMILES: O=C(CCSCc1ccco1)NNC(=O)N1Cc2ccccc2Oc2ccc(Cl)cc21
- Growth Rate (HEK-293T; 18 h, replicate number 1): 0.93
- Growth Rate (HEK-293T; 24 h, replicate number 1): 0.96
- Growth Rate (Fibroblast; 0 h, replicate number 1): -1
- Growth Rate (Fibroblast; 6 h, replicate number 1): 0.64
- Growth Rate (Fibroblast; 6 h, replicate number 2): -0.43
- Growth Rate (Fibroblast; 12 h, replicate number 1): 0.82
- Growth Rate (Fibroblast; 12 h, replicate number 2): 0.45
- Growth Rate (Fibroblast; 18 h, replicate number 1): 0.92
- Growth Rate (Fibroblast; 18 h, replicate number 2): 0.53
- Growth Rate (Fibroblast; 24 h, replicate number 1): 0.8
- Growth Rate (Fibroblast; 24 h, replicate number 2): 0.72
- Growth Rate (U2OS; 6 h, replicate number 1): 0.95
- Growth Rate (U2OS; 12 h, replicate number 2): 0.92
- Growth Rate (U2OS; 24 h, replicate number 2): 0.92

SMILES: CN(c1ccc(C(F)(F)F)cc1)S(=O)(=O)c1ccc(C(=O)Nc2nc(-c3ccccn3)cs2)cc1
- Growth Rate (HEK-293T; 18 h, replicate number 2): 0.84
- Growth Rate (HEK-293T; 24 h, replicate number 1): 0.82
- Growth Rate (HEK-293T; 24 h, replicate number 2): 0.76
- Growth Rate (Fibroblast; 24 h, replicate number 1): 0.92
- Growth Rate (Fibroblast; 24 h, replicate number 2): 0.82
- Growth Rate (U2OS; 0 h, replicate number 1): -1
- Growth Rate (U2OS; 6 h, replicate number 2): 0.76
- Growth Rate (U2OS; 12 h, replicate number 2): 0.65
- Growth Rate (U2OS; 18 h, replicate number 1): 0.94
- Growth Rate (U2OS; 24 h, replicate number 2): 1

SMILES: COc1cc(-c2cc3ncccc3c(O[C@H](C)[C@H]3CNC(=O)C3)n2)cc(OC)c1OC.Cl
- Growth Rate (HEK-293T; 18 h, replicate number 2): 0.97
- Growth Rate (HEK-293T; 24 h, replicate number 2): 0.86
- Growth Rate (Fibroblast; 0 h, replicate number 1): -1
- Growth Rate (Fibroblast; 0 h, replicate number 2): -0.01
- Growth Rate (Fibroblast; 6 h, replicate number 1): 0.62
- Growth Rate (Fibroblast; 12 h, replicate number 1): 0.89
- Growth Rate (Fibroblast; 12 h, replicate number 2): 0.61 and 0.94
- Growth Rate (Fibroblast; 18 h, replicate number 1): 0.88
- Growth Rate (Fibroblast; 18 h, replicate number 2): 0.86
- Growth Rate (U2OS; 12 h, replicate number 1): 0.79
- Growth Rate (U2OS; 18 h, replicate number 1): 0.92
- Growth Rate (U2OS; 24 h, replicate number 1): 0.78
- Growth Rate (U2OS; 24 h, replicate number 2): 0.94

SMILES: COc1cc(Oc2nc(-c3ccc(NC(=O)C4CCOC4)cc3)nn3c(C)nc(C)c23)cc(OC)c1OC (stereo unspecified)
- Growth Rate (HEK-293T; 24 h, replicate number 1): 0.96
- Growth Rate (Fibroblast; 0 h, replicate number 2): 0.03
- Growth Rate (Fibroblast; 12 h, replicate number 2): 0.75
- Growth Rate (U2OS; 6 h, replicate number 1): 0.98
- Growth Rate (U2OS; 12 h, replicate number 2): 0.94
- Growth Rate (U2OS; 24 h, replicate number 1): 0.87

SMILES: COc1cc2nc(C)nc(NC3(c4ccccc4)CC3)c2cc1OC
- Growth Rate (HEK-293T; 18 h, replicate number 1): 0.87
- Growth Rate (HEK-293T; 24 h, replicate number 1): 0.93
- Growth Rate (Fibroblast; 0 h, replicate number 2): 0.11
- Growth Rate (Fibroblast; 6 h, replicate number 1): 0.99
- Growth Rate (Fibroblast; 6 h, replicate number 2): 0.66
- Growth Rate (Fibroblast; 12 h, replicate number 1): 0.99
- Growth Rate (Fibroblast; 12 h, replicate number 2): 0.7
- Growth Rate (U2OS; 6 h, replicate number 1): 0.52
- Growth Rate (U2OS; 12 h, replicate number 1): 0.94
- Growth Rate (U2OS; 12 h, replicate number 2): 0.97
- Growth Rate (U2OS; 18 h, replicate number 1): 0.94
- Growth Rate (U2OS; 24 h, replicate number 1): 0.86

SMILES: COc1ccc(S(=O)(=O)N2CCOCC2)cc1Nc1ccc2c(n1)N(C1CCN(C)CC1)[C@H](C)C(=O)N2C
- Growth Rate (HEK-293T; 18 h, replicate number 1): 0.97
- Growth Rate (HEK-293T; 24 h, replicate number 1): 0.66
- Growth Rate (HEK-293T; 24 h, replicate number 2): 0.62
- Growth Rate (Fibroblast; 0 h, replicate number 2): 0.55
- Growth Rate (Fibroblast; 6 h, replicate number 1): 0.47
- Growth Rate (Fibroblast; 6 h, replicate number 2): -0.45
- Growth Rate (Fibroblast; 12 h, replicate number 1): 0.73
- Growth Rate (Fibroblast; 12 h, replicate number 2): 0.26
- Growth Rate (Fibroblast; 18 h, replicate number 1): 0.88
- Growth Rate (Fibroblast; 18 h, replicate number 2): 0.48
- Growth Rate (Fibroblast; 24 h, replicate number 1): 0.86
- Growth Rate (Fibroblast; 24 h, replicate number 2): 0.41
- Growth Rate (U2OS; 0 h, replicate number 2): 0.58
- Growth Rate (U2OS; 12 h, replicate number 2): 0.86
- Growth Rate (U2OS; 18 h, replicate number 1): 0.83
- Growth Rate (U2OS; 18 h, replicate number 2): 0.79
- Growth Rate (U2OS; 24 h, replicate number 1): 0.45
- Growth Rate (U2OS; 24 h, replicate number 2): 0.72
